In brackets after ≈: the same amount, converted by molar mass. Like-named read-outs stand apart in the source and are kept apart here.

Consider 3 compounds from patent US5525599A, “7-substituted-amino-3-substituted-3-cephem-4-carboxylic acids” (Eli Lilly and Company, priority 1993, dated 1996).

Assay [1] relates to E. coli (EC14). The experiment in a line: In vitro activity (MIC), agar dilution method. Type of assay: cell-based. The note with it: Escherichia coli. How it is done: (§1) Cephalosporins 9a-o were assayed against a broad array of Gram-positive and Gram-negative bacteria in Mueller-Hinton agar by the 2-fold serial dilution method, (Kirst, H. A.; J. Antibiot. 1982, 35, 1675).
(§2) Test compounds were diluted to an appropriate range of concentrations in 0.1M phosphate buffer (pH 7), incorporated into Mueller-Hinton agar (difco) supplemented with 1% Bacto-Supplement C (Difco) at 50° C. and allowed to solidify in petri dishes. Fresh overnight cultures of test bacteria were diluted to approximately 1×10^4 cells/mL aand applied in […] to the surface of the agar plates. The inoculated plates were incubated overnight at 35° C. in ambient air. MIC endpoints were recorded as the lowest antibiotic concentrations that inhibited the development of visible bacterial growth on the plates.
On the technique in general: Agar dilution tests growth on a series of plates holding different concentrations.

Assay [2] has as its system E. coli (N10). Briefly: In vitro activity (MIC), agar dilution method. The note with it: Escherichia coli. Type of assay: cell-based. On the procedure:
as §1, §2

Assay [3] relates to E. coli (TEM). The experiment in a line: In vitro activity (MIC), agar dilution method. Type of assay: cell-based. The settings on record: Escherichia coli. How it is done: as §1, §2
For assay [4], the system named is Enter. faecalis (2041). Briefly: In vitro activity (MIC), agar dilution method. Type of assay: cell-based. The settings on record: Enterococcus faecalis. On the procedure:
as §1, §2

For assay [5], the system named is Enter. faecium (X66). The experiment in a line: In vitro activity (MIC), agar dilution method. The note with it: Enterococcus faecium. Type of assay: cell-based. How it is done: as §1, §2
Assay [6] deals with H. influenzae (76). Briefly: In vitro activity (MIC), agar dilution method. Type of assay: cell-based. The note with it: Haemophilus influenzae. On the procedure:
as §1, §2

Assay [7] relates to H. influenzae (C.L.). The experiment in a line: In vitro activity (MIC), agar dilution method. Type of assay: cell-based. The settings on record: Haemophilus influenzae. On the procedure: as §1, §2
Assay [8] has as its system K. pneumonia (KAE). Briefly: In vitro activity (MIC), agar dilution method. Type of assay: cell-based. The note with it: Klebsiella pneumoniae. On the procedure: as §1, §2
Assay [9] has as its system K. pneumonia (X26). Briefly: In vitro activity (MIC), agar dilution method. The settings on record: Klebsiella pneumoniae. Type of assay: cell-based. How it is done:
as §1, §2

Assay [10] relates to K. pneumonia (X68). The experiment in a line: In vitro activity (MIC), agar dilution method. Type of assay: cell-based. The settings on record: Klebsiella pneumoniae. On the procedure: as §1, §2
In assay [11] the test system is Staph. aureus (S13E). Briefly: In vitro activity (MIC), agar dilution method. Type of assay: cell-based. The settings on record: Staphylococcus aureus. On the procedure: as §1, §2
Assay [12] has as its system Staph. aureus (V41). Briefly: In vitro activity (MIC), agar dilution method. Type of assay: cell-based. The settings on record: Staphylococcus aureus. How it is done:
as §1, §2

Assay [13] has as its system Staph. aureus (X1.1). The experiment in a line: In vitro activity (MIC), agar dilution method. Type of assay: cell-based. The note with it: Staphylococcus aureus. On the procedure:
as §1, §2

Assay [14] concerns Staph. aureus (X400). Briefly: In vitro activity (MIC), agar dilution method. Type of assay: cell-based. The settings on record: Staphylococcus aureus. How it is done:
as §1, §2

Assay [15] relates to Staph. epiderm. (222). Briefly: In vitro activity (MIC), agar dilution method. Type of assay: cell-based. The settings on record: Staphylococcus epidermidis. How it is done: as §1, §2
Assay [16] concerns Strept. pyogenes (C203). The experiment in a line: In vitro activity (MIC), agar dilution method. Type of assay: cell-based. The settings on record: Streptococcus pyogenes. On the procedure: as §1, §2
Assay [17] relates to other Gram(-) bacteria. Briefly: In vitro activity (MIC), agar dilution method. Type of assay: cell-based.
The subject of assay [18] is Gram-positive bacteria. The settings on record: in words; background statement; cited from earlier work.
The subject of assay [19] is 33 strains of methicillin-resistant staphylococci. The experiment in a line: Geometric mean MICs against 33 strains of methicillin-resistant staphylococci. Type of assay: cell-based. The settings on record: for MIC: 33 strains, read-out: Geometric mean MIC. On the procedure:
as §2
It is known that resistance to methicillin in staphylococci is often of the heterogeneous type and therefore not easily detected. […] (Goldstein, F. W.; Acar, J. J. Antimicrob. Chemother. […], 27, 549). […] J.; Drake T. A.; Rusnak, M. G.; Sande, M. A. J. Infect. Dis. 1984, 149, 894).

The subject of assay [20] is methicillin-resistant staphylococci. The note with it: in words; Frongillo 1984; cited from earlier work.
For assay [21] the test system is unchanged. The note with it: in words; Chambers 1984; cited from earlier work.
Assay [22] has the same test system. The note with it: in words; Frongillo 1986; cited from earlier work.
For assay [23], the system named is Staph. epiderm. (270). The experiment in a line: In vitro activity (MIC), agar dilution method. Type of assay: cell-based. The settings on record: Staphylococcus epidermidis, methicillin-resistant strain. On the procedure:
as §1, §2

Assay [24] in a line: MICs against 4 strains of methicillin-resistant staphylococci. Type of assay: cell-based, Staphylococcus aureus and Staphylococcus epidermidis. The note with it: Staphylococcus aureus, read-out: minimal inhibitory concentrations (MICs). On the procedure: as §1, §2

For `CN[C@H](CC(C)C)C(=O)N[C@H]1C(=O)N[C@@H](CC(N)=O)C(=O)N[C@H]2C(=O)N[C@H]3C(=O)N[C@H](C(=O)N[C@H](C(=O)O)c4cc(O)cc(O)c4-c4cc3ccc4O)[C@H](O)c3ccc(c(Cl)c3)Oc3cc2cc(c3O[C@@H]2O[C@H](CO)[C@@H](O)[C@H](O)[C@H]2O[C@H]2C[C@](C)(N)[C@H](O)[C@H](C)O2)Oc2ccc(cc2Cl)[C@H]1O` [Vanc, Vancomycin, reference compound], the MIC in assay [1] was determined as 128 mg/L (≈ 88.3 µM); in assay [2] it was 128 mg/L (≈ 88.3 µM); in assay [3] it was 128 mg/L (≈ 88.3 µM); in assay [4], 2 mg/L (≈ 1.38 µM); in assay [5], 0.5 mg/L (≈ 0.345 µM); in assay [6] it was 128 mg/L (≈ 88.3 µM). The MIC in assay [7] is 64 mg/L (≈ 44.2 µM); in [8] it was 128 mg/L (≈ 88.3 µM); in [9] it was 128 mg/L (≈ 88.3 µM); in [10], 128 mg/L (≈ 88.3 µM); in assay [11] it was 0.5 mg/L (≈ 0.345 µM); in assay [12] it was 0.5 mg/L (≈ 0.345 µM). Besides, the MIC in assay [13] came to 0.5 mg/L (≈ 0.345 µM); in [14], 0.5 mg/L (≈ 0.345 µM); in assay [15] it was 0.5 mg/L (≈ 0.345 µM); in assay [16] it was 0.5 mg/L (≈ 0.345 µM); in assay [17], 128 mg/L (≈ 88.3 µM). The “activity against Gram-positive bacteria including methicillin-resistant staphylococci” value in [18] is on record as “potent activity only against the Gram-positive bacteria including methicillin-resistant staphylococci”.
Consider `Cn1nnnc1SCC1=C(C(=O)O)N2C(=O)[C@@H](NC(=O)[C@H](O)c3ccccc3)[C@H]2SC1` [Cefamandole], for which the MIC in assay [19] (MHA + 4% NaCl, 35° C.) was found to be 13 mg/L; in assay [19] (MHA), 6.8 mg/L (≈ 14.7 µM). The “activity against methicillin-resistant staphylococci” value in assay [20] is “among the most active β-lactam antibiotics against methicillin-resistant staphylococci”. Besides, the “efficacy in animal models versus vancomycin” value in [21] is listed as “poorer efficacy than vancomycin in animal models”. For the same compound, the “clinical use for treatment of infections caused by methicillin-resistant staphylococci” value in assay [22] is reported as “successfully used clinically for the treatment of infections caused by methicillin-resistant staphylococci”.
Turning to `CC(=O)OCC1=C(C(=O)O)N2C(=O)[C@@H](NC(=O)Cc3csc(-c4ncccc4O)n3)[C@H]2SC1` [9i, [6R-[6A,7B(R*)]]-3-[(Acetyloxy)methyl]-7-[[[2-(3-hydroxy-2-pyridinyl)-4-thiazolyl]acetyl]amino]-8-oxo-5-thia-1-azabicyclo[4.2.0]oct-2-ene-2-carboxylicAcid], the MIC in assay [1] is 128 mg/L (≈ 261 µM); in [2] it was 128 mg/L (≈ 261 µM); in assay [3], 128 mg/L (≈ 261 µM); in assay [4] (Enter. faecalis (2041), agar dilution, read-out: MIC) it was 8 mg/L (≈ 16.3 µM); in assay [5] (Enter. faecium (X66), agar dilution, read-out: MIC), 8 mg/L (≈ 16.3 µM); in assay [6] (H. influenzae (76), agar dilution, read-out: MIC), 2 mg/L (≈ 4.08 µM). The MIC in [7] (H. influenzae (C.L.), agar dilution, read-out: MIC) turned out to be 4 mg/L (≈ 8.15 µM); in assay [8] it was 128 mg/L (≈ 261 µM); in assay [9] (K. pneumonia (X26), agar dilution, read-out: MIC), 1 mg/L (≈ 2.04 µM); in [10], 128 mg/L (≈ 261 µM); in assay [11] it was 2 mg/L (≈ 4.08 µM); in assay [12] (Staph. aureus (V41), agar dilution, read-out: MIC) it was 0.5 mg/L (≈ 1.02 µM). The MIC in [13] (Staph. aureus (X1.1), agar dilution, read-out: MIC) is 0.125 mg/L (≈ 0.255 µM); in assay [14] (Staph. aureus (X400), methicillin-resistant strain, agar dilution, read-out: MIC), 4 mg/L (≈ 8.15 µM); in assay [15] (Staph. epiderm. (222), methicillin-resistant strain, agar dilution, read-out: MIC), 0.125 mg/L (≈ 0.255 µM); in assay [23] it was 0.5 mg/L (≈ 1.02 µM); in assay [16] (Strept. pyogenes (C203), agar dilution, read-out: MIC), 0.015 mg/L (≈ 0.0306 µM); in [17], more than 64 mg/L. Besides, the MIC in assay [19] (MHA + 4% NaCl, 35° C.) was 8 mg/L; in assay [19] (MHA) it was 4.8 mg/L (≈ 9.79 µM); in assay [24], not above 16 mg/L. In addition, the “MICs relative to clinically achievable concentrations for cephalosporins” value in [19] (in words, 4% NaCl) is recorded as “remained in the range usually considered to be clinically achievable concentrations for cephalosporins”. In addition, the “change of MICs in the presence of NaCl” value in assay [19] (in words, 4% NaCl) is recorded as “only slightly elevated in the presence of NaCl”.
